Patent publication US20240124422A1, “MUTANT PI3K-ALPHA INHIBITORS AND THEIR USE AS PHARMACEUTICALS” (Prelude Therapeutics Incorporated, priority 2022, published 2024)

Legend:
[1] = tested on: phosphorylation of AKT on Ser473 as a readout of the PI3K pathway in T-47D (heterozygous PIK3CA H1047R) cells; test: PI3K pathway activation assay, pAKT Ser473 HTRF, T-47D cells; assay type: cell-based; conditions: Homo sapiens, T47D, 2 h, two hours of treatment
In short: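 pAKT Ser473 measured by HTRF in SKBR3 (PIK3CA WT) and T-47D (PIK3CA H1047R) cells, 4,000/well. Signal normalised to background and DMSO controls as percent inhibition.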

[2] = tested on: phosphorylation of AKT on Ser473 as a readout of the PI3K pathway in SKBR3 (PIK3CA WT) cells; test: PI3K pathway activation assay, pAKT Ser473 HTRF, SKBR3 cells; assay type: cell-based; conditions: Homo sapiens, SK-BR-3, 2 h, two hours of treatment
Description: The inhibitory activity of compounds was evaluated by measuring phosphorylation of AKT on Ser473 as a readout of the PI3K pathway using HTRF (CisBio catalog number: 64AKSPE). These studies were conducted in the T-47D (heterozygous PIK3CA H1047R) and SKBR3 (PIK3CA WT) cell lines. Cells were maintained in a 37° C. incubator at 5% CO2 in the following media: T-47D: RPMI 1640, ATCC© Modification (Gibco, A10491-01) supplemented with 10% v/v FBS (Gibco, 26140-079), 1% penicillin streptomycin (Gibco, 15140-122), and 7.4 ug/mL insulin (MilliporeSigma, I9278); SKBR3: McCoy's 5a (Modified) Medium (Gibco, 16600-082) supplemented with 10% v/v FBS (Gibco, 26140-079). Cells were seeded in 384-well plates at a density of 4,000 cells/well. Compounds dissolved in DMSO were added using a digital dispense (D300E, Tecan) 10-point serial dilution. After two hours of treatment, cells were lysed for thirty minutes and then incubated with detection reagents per HTRF kit material and manufacturer's instructions. Fluorescence signal was measured with a multimode plate reader (Envision 2105, Perkin Elmer). Fluorescent signal was normalized to background and DMSO controls to obtain percent inhibition/activity for each compound.

COCCn1c(N2Cc3ccccc3C2)nc2c(C(C)Nc3ccccc3C(=O)O)cc(C)cc2c1=O (stereo not shown) [Example 19, 2-((1-(2-(isoindolin-2-yl)-3-(2-methoxyethyl)-6-methyl-4-oxo-3,4-dihydroquinazolin-8-yl)ethyl)amino)benzoic acid]
IC50 [1]: 500 to 10000 nM
IC50 [2]: > 10 µM

Cc1cc(C(C)Nc2ccccc2C(=O)O)c2nc(N3Cc4ccccc4C3)n(C(C)C)c(=O)c2c1 (stereo not shown) [Example 21, 2-((1-(2-(isoindolin-2-yl)-3-isopropyl-6-methyl-4-oxo-3,4-dihydroquinazolin-8-yl)ethyl)amino)benzoic acid]
IC50 [1]: < 500 nM
IC50 [2]: > 10 µM

Cc1cc(C(C)Nc2ccccc2C(=O)O)c2nc(N3Cc4ccccc4C3)n(C3CC(CO)(CO)C3)c(=O)c2c1 (stereo not shown) [Example 98, 2-((1-(3-(3,3-Bis(hydroxymethyl)cyclobutyl)-2-(isoindolin-2-yl)-6-methyl-4-oxo-3,4-dihydroquinazolin-8-yl)ethyl)amino)benzoic acid]
IC50 [1]: < 500 nM
IC50 [2]: > 10 µM

Cc1cc(C(C)Nc2cn(C)nc2C(=O)O)c2nc(N3Cc4ccccc4C3)n(C)c(=O)c2c1 (stereo not shown) [Example 34, 4-((1-(2-(isoindolin-2-yl)-3,6-dimethyl-4-oxo-3,4-dihydroquinazolin-8-yl)ethyl)amino)-1-methyl-1H-pyrazole-3-carboxylic acid]
IC50 [1]: 500 to 10000 nM
IC50 [2]: > 10 µM

CC(Nc1ccccc1C(=O)O)c1cc(F)cc2c(=O)n(C)c(N3CC4CC4C3)nc12 (stereo not shown) [Example 49, 2-((1-(2-(3-azabicyclo[3.1.0]hexan-3-yl)-6-fluoro-3-methyl-4-oxo-3,4-dihydro-quinazolin-8-yl)ethyl)amino)benzoic acid]
IC50 [1]: < 500 nM
IC50 [2]: > 10 µM

CC(Nc1ccccc1C(=O)O)c1cc(Br)cc2c(=O)n(C)c(N3Cc4ccccc4C3)nc12 (stereo not shown) [Example 70, 2-((1-(6-Bromo-2-(isoindolin-2-yl)-3-methyl-4-oxo-3,4-dihydroquinazolin-8-yl)ethyl)amino)benzoic acid]
IC50 [1]: < 500 nM
IC50 [2]: > 10 µM

Cc1cc(C(C)Nc2cccnc2C(=O)O)c2nc(N3Cc4ccccc4C3)n(C)c(=O)c2c1 (stereo not shown) [Example 28, 3-((1-(2-(isoindolin-2-yl)-3,6-dimethyl-4-oxo-3,4-dihydroquinazolin-8-yl)ethyl)amino)picolinic acid]
IC50 [1]: 500 to 10000 nM
IC50 [2]: > 10 µM

COc1ccc(NC(C)c2cc(C)cc3c(=O)n(C)c(N4CC5CC5C4)nc23)c(C(=O)O)n1 (stereo not shown) [Example 119, 3-[1-[2-(3-Azabicyclo[3.1.0]hexan-3-yl)-3,6-dimethyl-4-oxoquinazolin-8-yl]ethylamino]-6-methoxypyridine-2-carboxylic acid]
IC50 [1]: 500 to 10000 nM
IC50 [2]: > 10 µM

Cc1cc(C(C)Nc2ccccc2C(N)=O)c2nc(N3Cc4ccccc4C3)n(C)c(=O)c2c1 (stereo not shown) [Example 4, 2-((1-(2-(isoindolin-2-yl)-3,6-dimethyl-4-oxo-3,4-dihydroquinazolin-8-yl)ethyl)amino)benzamide]
IC50 [1]: 500 to 10000 nM
IC50 [2]: > 10 µM

Cc1ccc(C(=O)O)c(NC(C)c2cc(C)cc3c(=O)n(C)c(N4Cc5ccccc5C4)nc23)c1 (stereo not shown) [Example 69, 2-((1-(2-(Isoindolin-2-yl)-3,6-dimethyl-4-oxo-3,4-dihydroquinazolin-8-yl)ethyl)amino)-4-methylbenzoic]
IC50 [1]: 500 to 10000 nM
IC50 [2]: > 10 µM

Cc1cc(C(C)Nc2ccccc2C(=O)NO)c2nc(N3Cc4ccccc4C3)n(C)c(=O)c2c1 (stereo not shown) [Example 10, N-Hydroxy-2-((1-(2-(isoindolin-2-yl)-3,6-dimethyl-4-oxo-3,4-dihydroquinazolin-8-yl)ethyl)amino)benzamide]
IC50 [1]: 500 to 10000 nM
IC50 [2]: > 10 µM

CC(Nc1ccccc1C(=O)O)c1cc(Cl)cc2c(=O)n(C)c(N3CC4CC4C3)nc12 (single isomer, unassigned) [Example 105, 2-((1-(2-(3-Azabicyclo[3.1.0]hexan-3-yl)-6-chloro-3-methyl-4-oxo-3,4-dihydroquinazolin-8-yl)ethyl)amino)benzoic acid]
IC50 [1]: < 500 nM
IC50 [2]: > 10 µM

Cc1cc(C(C)Nc2ccc(F)c(F)c2C(=O)O)c2nc(N3Cc4ccccc4C3)n(C)c(=O)c2c1 (stereo not shown) [Example 35, 2,3-difluoro-6-((1-(2-(isoindolin-2-yl)-3,6-dimethyl-4-oxo-3,4-dihydroquinazolin-8-yl)ethyl)amino)benzoic acid]
IC50 [1]: < 500 nM
IC50 [2]: > 10 µM

Cc1cc(C(C)Nc2ccc(F)cc2C(=O)O)c2nc(N3CC4CC4C3)n(C)c(=O)c2c1 (stereo not shown) [Example 123, 2-[1-[2-(3-Azabicyclo[3.1.0]hexan-3-yl)-3,6-dimethyl-4-oxoquinazolin-8-yl]ethylamino]-5-fluorobenzoic acid]
IC50 [1]: < 500 nM
IC50 [2]: > 10 µM

Cc1cc(C(C)Nc2ccccc2C(=O)O)c2nc(N3CCC4(CC4)C3)n(C)c(=O)c2c1 (stereo not shown) [Example 39, 2-[1-[2-(5-azaspiro[2.4]heptan-5-yl)-3,6-dimethyl-4-oxoquinazolin-8-yl]ethyl-amino]benzoic acid]
IC50 [1]: < 500 nM
IC50 [2]: > 10 µM

Cc1cc(C(C)Nc2ccc(F)c(F)c2C(=O)O)c2nc(N3Cc4ccccc4C3)n(CCCF)c(=O)c2c1 (stereo not shown) [Example 20, 2,3-difluoro-6-((1-(3-(3-fluoropropyl)-2-(isoindolin-2-yl)-6-methyl-4-oxo-3,4-dihydroquinazolin-8-yl)ethyl)amino)benzoic acid]
IC50 [1]: < 500 nM
IC50 [2]: > 10 µM

[2H]C([2H])([2H])n1c(N2CC3CC3C2)nc2c(C(C)Nc3ccccc3C(=O)O)cc(C)cc2c1=O (single isomer, unassigned) [Example 104, 2-((1-(2-(3-Azabicyclo[3.1.0]hexan-3-yl)-6-methyl-3-(methyl-d3)-4-oxo-3,4-dihydroquinazolin-8-yl)ethyl)amino)benzoic acid]
IC50 [1]: < 500 nM
IC50 [2]: > 10 µM
